Data on three compounds can be found in ChEMBL document CHEMBL3627650, “Design, synthesis, and evaluation of new endomorphin analogs with enhanced central antinociception after peripheral administration” (Bioorg Med Chem Lett, 2015).

Molecules are shown by their SMILES. Activity calls are given as the source filed them. No cut-off for these calls is given here.

The test system of experiment [1] is Mus musculus. Description: Antinociceptive activity in mouse assessed as inhibition of tail flick at 2 to 20 nmol, icv. In kind it is functional, organism-based. Conditions: TDE = time-dependent effect.
The test system of experiment [2] is Mus musculus. Description: Antinociceptive activity in iv dosed mouse assessed as inhibition of tail flick measured at 5 to 60 mins. The class given is functional, organism-based.
The target in experiment [3] is T1, Mu-type opioid receptor (Homo sapiens, UniProt P35372). Nature of the experiment: Agonist activity at mu opioid receptor (unknown origin) transfected in HEK293 cells assessed as inhibition of forskolin-stimulated cAMP production. The class given is functional, cell-based. (In general: cAMP levels reflect the balance of adenylyl cyclase and phosphodiesterase activity.)

Experiment [4] concerns Mus musculus. Description: Antinociceptive activity in icv dosed mouse assessed as inhibition of tail flick measured at 5 to 60 mins. In kind it is functional. Conditions: for ED50: central.
Experiment [5] has as its system Mus musculus. Description: Antinociceptive activity in mouse prolonged tonic phase inflammatory pain model assessed as inhibition of formalin-induced licking/biting behavior at 16 mg/kg, iv in presence of opioid receptor antagonist naloxone. The class given is functional, organism-based.
Experiment [6] has as its system Mus musculus. Nature of the experiment: Antinociceptive activity in mouse assessed as inhibition of tail flick at 20 nmol, icv in presence of opioid receptor antagonist naloxone. The class given is functional, organism-based.
The species named for experiment [7] is Homo sapiens. Nature of the experiment: Selectivity ratio of Ki for delta opioid receptor (unknown origin) to Ki for mu opioid receptor (unknown origin).
The target of experiment [8] is T1, Mu-type opioid receptor. Nature of the experiment: Displacement of [3H]-DAMGO from mu opioid receptor (unknown origin) transfected in HEK293 cells. The class given is cell-based. Background: Loss of bound radioactivity is the signal in a displacement assay; it reports binding, not function.
Experiment [9] has as its system Mus musculus. Nature of the experiment: Antinociceptive activity in mouse assessed as inhibition of tail flick at 4 to 16 mg/kg, iv measured at 60 mins relative to control. The class given is functional.
Experiment [10] concerns Mus musculus. Nature of the experiment: Antinociceptive activity in iv dosed mouse acute phase inflammatory pain model assessed as inhibition of formalin-induced licking/biting behavior. In kind it is functional, organism-based.
The test system of experiment [11] is Mus musculus. Description: Antinociceptive activity in mouse acute phase inflammatory pain model assessed as inhibition of formalin-induced licking/biting behavior at 16 mg/kg, iv in presence of opioid receptor antagonist naloxone. In kind it is functional, organism-based.
Experiment [12] relates to Mus musculus. Nature of the experiment: Antinociceptive activity in iv dosed mouse prolonged tonic phase inflammatory pain model assessed as inhibition of formalin-induced licking/biting behavior. The class given is functional, organism-based.
The test system of experiment [13] is Mus musculus. Description: Antinociceptive activity in mouse assessed as inhibition of tail flick at 16 mg/kg, iv in presence of opioid receptor antagonist naloxone. The class given is functional, organism-based.
Experiment [14] has as its system Mus musculus. Description: Antinociceptive activity in mouse assessed as inhibition of tail flick at 16 mg/kg, iv in presence of opioid receptor antagonist naloxone methiodide. The class given is functional, organism-based.
For experiment [15], the system named is Mus musculus. Description: Antinociceptive activity in mouse assessed as inhibition of tail flick at 16 mg/kg, iv measured at 5 to 60 mins relative to control. The class given is functional.
Experiment [16] deals with Delta-type opioid receptor (Homo sapiens, UniProt P41143). Nature of the experiment: Displacement of [3H]-DPDPE from delta opioid receptor (unknown origin) transfected in HEK293 cells. In kind it is cell-based.
Experiment [17] relates to Mus musculus. Description: Antinociceptive activity in mouse acute phase inflammatory pain model assessed as inhibition of formalin-induced licking/biting behavior at 4 mg/kg, iv. The class given is functional, organism-based.
In experiment [18] the test system is Mus musculus. Description: Antinociceptive activity in mouse assessed as inhibition of tail flick at 2 to 20 nmol, icv measured after 30 mins. The class given is functional, organism-based.
Experiment [19] has as its system Mus musculus. Description: Antinociceptive activity in mouse assessed as inhibition of tail flick at 4 mg/kg, iv measured at 5 to 60 mins. In kind it is functional, organism-based.
Experiment [20] has as its system Mus musculus. Description: Antinociceptive activity in mouse assessed as inhibition of tail flick at 2 to 20 nmol, icv measured up to 30 mins relative to control. In kind it is functional.
The subject of experiment [21] is Mus musculus. Nature of the experiment: Antinociceptive activity in mouse prolonged tonic phase inflammatory pain model assessed as inhibition of formalin-induced licking/biting behavior at 4 mg/kg, iv. The class given is functional, organism-based.

T1 sequence (P35372 whole entry): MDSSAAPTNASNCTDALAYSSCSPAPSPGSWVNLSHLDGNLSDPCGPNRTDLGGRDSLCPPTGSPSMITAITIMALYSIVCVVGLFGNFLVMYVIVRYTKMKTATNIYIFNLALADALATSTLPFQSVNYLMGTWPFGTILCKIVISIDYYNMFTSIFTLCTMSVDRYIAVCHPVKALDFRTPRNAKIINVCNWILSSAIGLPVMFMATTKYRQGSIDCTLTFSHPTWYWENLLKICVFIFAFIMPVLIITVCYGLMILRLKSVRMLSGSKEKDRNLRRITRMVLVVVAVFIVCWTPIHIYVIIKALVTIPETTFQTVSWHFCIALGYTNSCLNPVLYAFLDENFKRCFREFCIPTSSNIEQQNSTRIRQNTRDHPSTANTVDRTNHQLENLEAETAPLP
Chain of Delta-type opioid receptor (P41143 whole entry): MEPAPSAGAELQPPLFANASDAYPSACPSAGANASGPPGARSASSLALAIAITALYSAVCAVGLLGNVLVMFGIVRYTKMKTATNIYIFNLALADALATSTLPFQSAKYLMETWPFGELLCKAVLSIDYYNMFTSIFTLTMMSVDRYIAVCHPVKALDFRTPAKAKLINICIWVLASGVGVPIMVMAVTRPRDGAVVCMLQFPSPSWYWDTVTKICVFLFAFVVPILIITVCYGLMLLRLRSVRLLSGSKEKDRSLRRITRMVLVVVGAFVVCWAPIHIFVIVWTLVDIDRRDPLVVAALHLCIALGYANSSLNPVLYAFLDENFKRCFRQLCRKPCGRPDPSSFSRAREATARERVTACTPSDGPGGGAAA

In general, EC50 refers to the concentration that produces a half-maximal response. Usually Emax stands for the size of the effect at its maximum, as opposed to the concentration needed. What is called ED50 is the dose at which the effect has come halfway, by size or by number of responders. The term Ki denotes the equilibrium dissociation constant of an inhibitor or competing ligand from its target. A lower Ki goes with higher affinity. In the case of `C=C(C(N)=O)[C@H](NC(=O)[C@H](Cc1c[nH]c2ccccc12)NC(=O)[C@@H]1CCCN1C(=O)[C@@H](N)Cc1ccc(O)cc1)c1ccsc1`, the Activity entry was “tde” in experiment [1]; “Dose-dependent effect” in [2]; “Dose-dependent effect” in experiment [4]; “Dose-dependent effect” in [10]; “Dose-dependent effect” in [12]. In experiment [3], the EC50 came to 0.0643 nM. Further, the Emax in experiment [3] turned out to be 97%. Moreover, the ED50 in experiment [4] worked out at 0.00223 µmol/kg. Moreover, the outcome in [5], in [6], in experiment [11] and in experiment [13] was inactive. Further, the Ratio Ki in experiment [7] was found to be 25800. For the same compound, the Ki worked out at 0.515 nM in [8] and 13300 nM in experiment [16]. Also, the MPE turned out to be 25% in experiment [9] and 89.8% in experiment [15]. Moreover, the result in [14] was Active.
In the case of `NC(=O)[C@H](Cc1ccccc1)NC(=O)[C@H](Cc1c[nH]c2ccccc12)NC(=O)[C@@H]1CCCN1C(=O)[C@@H](N)Cc1ccc(O)cc1` [ENDOMORPHIN-1], the outcome in experiment [17], in experiment [18], in experiment [19] and in [21] was inactive. Moreover, the MPE in experiment [20] was determined as 52.1%.
Regarding `C=C(C(N)=O)[C@H](NC(=O)[C@H](Cc1c[nH]c2ccccc12)NC(=O)[C@@H]1CCCN1C(=O)[C@@H](N)Cc1ccc(O)cc1)c1cccs1`, the Activity result in [1] is “tde”; in [2], “Dose-dependent effect”; in experiment [4], “Dose-dependent effect”; in experiment [10], “Dose-dependent effect”; in experiment [12] it was “Dose-dependent effect”. For the same compound, the EC50 in [3] came out at 0.0629 nM. For the same compound, the Emax in experiment [3] worked out at 98.2%. The ED50 in experiment [4] is 0.00207 µmol/kg. Also, the outcome in experiment [5], in [6], in experiment [11] and in [13] was inactive. The Ratio Ki in [7] stood at 21300. Further, the Ki was 0.565 nM in experiment [8] and 12000 nM in [16]. Further, the MPE in [9] turned out to be 25%; in [15], 86.6%. The result in experiment [14] was Active.
